Columns and labels:
[1] = target: T1, full length MAP4K5 (Homo sapiens, UniProt Q9Y4K4); assay: In vitro kinase assay (Reaction Biology); format: biochemical; conditions: up to 1 μM
T1 construct: and full length MAP4K5 (MBP substrate, ATP 10 μM) (Reaction Biology); purchased Reaction Biology

[2] = test system: cSCC in treated patients; conditions: 150 mg PO BID, ref Falchook et al., 2012, Hauschild et al., Long et al.; cited from earlier work
[3] = test system: A375 and WM35 BRAF^V600E melanoma cell lines; assay: Growth of BRAF^V600E melanoma cell lines; format: cell-based, human; conditions: bioequivalent doses: dabrafenib 0.05 μM, PLX4720 1.0 μM
[4] = Serum concentration in humans; format: in vivo, human; conditions: 150 mg PO BID vs vemurafenib 960 mg PO BID
[5] = test system: A375 melanoma cell line; conditions: ref Greger et al., 2012; cited from earlier work
[6] = target: T2, MKK4 (amino acids 33-end) (Homo sapiens, UniProt P45985); assay: In vitro kinase assay (Reaction Biology); format: biochemical; conditions: up to 1 μM
T2 construct: amino acids 33-end MKK4 (JNK1 substrate, ATP 0.1 μM); purchased Reaction Biology

[7] = test system: E1A and HRAS^G12V-transformed Craf−/− MEFs; assay: Soft agar colony formation; format: cell-based, mouse; conditions: 0.05 μM
[8] = test system: phospho-JNK; assay: Western blot, UV-induced phospho-JNK in cSCC and HaCaT cell lines; format: cell-based, human; conditions: 0.05 μM, HaCaT and SRB1 cells
[9] = target: T3, human full-length ZAK (Homo sapiens, UniProt Q9NYL2); assay: In vitro kinase assay (Reaction Biology); format: biochemical
T3 construct: In vitro kinase assays were performed using human full-length ZAK; purchased Reaction Biology

[10] = test system: E1A and HRAS^G12V-transformed wild-type (WT) MEFs; assay: Soft agar colony formation; format: cell-based, mouse; conditions: 0.05 μM
[11] = 150 mg PO BID in humans, ref Falchook et al., 2012; cited from earlier work
[12] = test system: SRB1 cells; assay: UV-induced apoptosis, FACS Annexin V+, TMRE-low; format: cell-based, human; conditions: 0.05 μM
[13] = test system: HaCaT cells; assay: UV-induced apoptosis, FACS Annexin V+, TMRE-low; format: cell-based, human; conditions: 0.05 μM
[14] = test system: phospho-ERK; assay: Western blot, ERK phosphorylation in SRB1 and NHEK cells; format: cell-based, human; conditions: 0.6 μM (NHEK) or 1.2 μM (SRB1)
Source text: Figure 2. […] DOI: http://dx.doi.org/10.7554/eLife.00969.010 [drawing 5]

T2 sequence (P45985 33-399 limits assumed): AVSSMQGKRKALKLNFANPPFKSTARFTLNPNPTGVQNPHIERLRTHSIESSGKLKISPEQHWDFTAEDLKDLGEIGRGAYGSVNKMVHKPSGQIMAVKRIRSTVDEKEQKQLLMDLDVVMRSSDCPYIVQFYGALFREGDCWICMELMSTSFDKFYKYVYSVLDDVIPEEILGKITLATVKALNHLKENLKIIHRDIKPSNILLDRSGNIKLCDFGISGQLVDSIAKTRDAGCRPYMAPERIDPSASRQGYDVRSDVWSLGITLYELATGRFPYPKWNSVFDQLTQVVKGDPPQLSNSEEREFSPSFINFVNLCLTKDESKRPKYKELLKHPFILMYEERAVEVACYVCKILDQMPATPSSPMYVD
T1 sequence (Q9Y4K4 whole entry): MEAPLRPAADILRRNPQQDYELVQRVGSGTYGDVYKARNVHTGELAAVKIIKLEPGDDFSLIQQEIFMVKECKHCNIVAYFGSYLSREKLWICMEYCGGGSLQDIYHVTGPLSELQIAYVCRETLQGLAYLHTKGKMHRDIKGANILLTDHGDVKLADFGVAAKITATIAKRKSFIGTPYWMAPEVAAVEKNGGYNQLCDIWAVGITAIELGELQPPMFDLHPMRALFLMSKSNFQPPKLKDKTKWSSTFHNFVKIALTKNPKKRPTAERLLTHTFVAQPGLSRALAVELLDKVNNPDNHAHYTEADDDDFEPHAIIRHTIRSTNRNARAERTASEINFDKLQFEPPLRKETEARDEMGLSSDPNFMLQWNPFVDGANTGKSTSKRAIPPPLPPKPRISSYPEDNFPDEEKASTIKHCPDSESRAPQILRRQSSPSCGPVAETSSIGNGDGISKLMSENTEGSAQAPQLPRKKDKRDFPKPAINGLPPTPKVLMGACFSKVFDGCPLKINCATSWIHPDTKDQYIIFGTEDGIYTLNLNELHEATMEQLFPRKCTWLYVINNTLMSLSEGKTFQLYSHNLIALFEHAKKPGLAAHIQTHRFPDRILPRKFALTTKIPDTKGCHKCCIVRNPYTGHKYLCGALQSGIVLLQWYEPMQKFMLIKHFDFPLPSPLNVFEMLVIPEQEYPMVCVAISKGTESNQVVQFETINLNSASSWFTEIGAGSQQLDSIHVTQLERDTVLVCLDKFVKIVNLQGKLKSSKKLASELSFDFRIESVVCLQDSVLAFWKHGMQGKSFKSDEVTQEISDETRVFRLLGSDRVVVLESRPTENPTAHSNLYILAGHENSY

| SMILES | inhibition of MAP4K5 [1] | overall aggregated cSCC rate [2] [%] | growth of A375 and WM35 cells [3] | peak serum concentration, fold lower than mean sustained serum levels of vemurafenib [4] | GI50 [5] [nM] | inhibition of MKK4 [6] | colony formation [7] | UV-induced phospho-JNK induction [8] | IC50 ([9]; MBP substrate, ATP 2.5 μM, read-out: biochemical IC50) [nM] | retained activity of ZAK kinase ([9]; at 0.01 μM) | colony formation [10] | peak serum concentrations [11] [µM] | UV-induced apoptosis [12] | UV-induced apoptosis [13] | ERK phosphorylation and activation [14] |
| --- | --- | --- | --- | --- | --- | --- | --- | --- | --- | --- | --- | --- | --- | --- | --- |
| CC(C)(C)c1nc(-c2cccc(NS(=O)(=O)c3c(F)cccc3F)c2F)c(-c2ccnc(N)n2)s1 [dabrafenib] | no significant inhibition | 6.1 | suppress the growth | over 50 fold | < 10 | no significant inhibition | fails to confer a significant growth advantage | fails to suppress | 28.9 ± 2.23 | over 64% | significant growth advantage | 1.55 | fails to suppress | fails to suppress |  |
| Cn1cnc2c(F)c(Nc3ccc(Br)cc3Cl)c(C(=O)NOCCO)cc21 [AZD6244] |  |  |  |  |  |  |  |  |  |  |  |  |  |  | effectively abrogated |
